Laboratory results published in patent US7795226B2, “Control of radiation injury” (Biotempt B.V., priority 2006, dated 2010).

What was measured:
[1] = test system: renal ischemia reperfusion in mice; experiment: mouse renal ischemia reperfusion test; assay type: in vivo; parameters: BUN after 25 minutes renal ischemia, mean / Urea levels in dose-response experiment: unit not given here; conditions: for BUN concentration versus the PBS control group (in words) / mortality versus the PBS control group (in words) / BUN after 25 minutes renal ischemia, mean: 5 mg/kg i.v.; for mortality at 72 hours post-reperfusion: 5 mg/kg i.v. before and after 25 minutes clamping, dead/total
Experimental: Six oligopeptides (i.e., A: LAGV (SEQ ID NO:121); B: AQGV (SEQ ID NO:120); C: LAG; D: AQG; E: MTR; and F: MTRV (SEO ID NO:119)) were tested and compared with PBS (control) in a double blind animal study for each peptide's relative ability to aid recovery in a mouse renal ischemia reperfusion test. In this test, the mice were anesthetized, and one kidney from each mouse was removed. The other kidney was tied off for 25 minutes, and the serum urea levels were allowed to increase. Both before and after tying off, each of the separate peptides was administered to thirty (30) different mice (5 mg oligopeptide / kg body mass intravenously), after which, the mortality of the mice was determined for each oligopeptide as well as was the BUN concentration at two hours, 24 hours and 72 hours. The results are shown in Table 3 below (excluding the results of peptide A (LAGV (SEQ ID NO:121)) obtained in Example 3).
Under inhalation anesthesia, the left kidney with its artery and vein was isolated and occluded for 25 minutes using a microvascular clamp. During surgery, animals were placed on a heating pad to maintain body temperature at 37° C. Five minutes before placing the clamp, and five minutes before releasing the clamp, 5 mg/kg of peptide dissolved in 0.1 mL of sterile saline, was administered intravenously. After reperfusion of the left kidney, the right kidney was removed. Kidney function was assessed by measuring blood urea nitrogen before clamping, and at 2, 24, and 72 hours after reperfusion.
Peptides were tested at 0.3, 1, 3, 10 and 30 mg/kg dosages given as described in Example 3. P values (calculated by Mann Whitney U-test (SPSS for Windows)) of serum urea levels of PBS compared to peptide D groups at 72 hours post-clamping were at 0.3 mg/kg 0.001, at 1 mg/kg 0.009, at 3 mg/kg 0.02, at 10 mg/kg 0.000, and at 30 mg/kg 0.23; for peptide B (SEQ ID NO:120) groups, these P-values were 0.88, 0.054, 0.000, 0.001 and 0.003.

[2] = test system: high dose LPS (E. coli 026:B6)-induced septic shock in BALB/c mice; experiment: high dose LPS-induced septic shock, peptide administered twice; assay type: in vivo; conditions: peptide twice (t = 2 and 24 hours) 5 mg/kg
Experimental: Mice used in sepsis or septic shock experiments: Female BALB/c mice of eight to twelve weeks of age were used for all experiments. The animals were bred in our facility under specific pathogen-free conditions according to the protocols described in the […] of European Laboratory Animal Science Associations (FELASA) Working group on Animal Health (Laboratory Animals 28:1-24, 1994).
Injection protocols: For the endotoxin model, BALB/c mice were injected i.p. with 150-300 μg LPS (E. coli 026:B6; Difco Lab., Detroit, Mich., USA). Control groups were treated with PBS i.p. only. To test the effect of peptides, they were dissolved in PBS and injected i.p. at predetermined points in time after LPS treatment.
Mice were scored for sickness severity using the following measurement scheme: • 0 No abnormalities. • 1 Percolated fur, but no detectable behavior differences compared to normal mice. • 2 Percolated fur, huddle reflex, responds to stimuli (such as tap on cage), just as active during handling as healthy mouse. • 3 Slower response to tap on cage, passive or docile when handled, but still curious when alone in a new setting. • 4 Lack of curiosity, little or no response to stimuli, quite immobile. • 5 Labored breathing, inability or slow to self-right after being rolled onto back (moribund, sacrificed). • D Dead.
A second set of septic shock experiments were set up to determine which of the peptides LQG, LQGV (SEQ ID NO:117), VLPALP (SEQ ID NO:140), VLPALPQ (SEQ ID NO:143), MTR, MTRV (SEQ ID NO:119), VVC or AQG, AQGV (SEQ ID NO:120), LAG and LAGV (SEQ ID NO:121) were capable of inhibiting high dose LPS-induced septic shock in mice by treating mice with a double dose of peptide at two and 24 hours after LPS treatment. At each treatment, peptides were used at 5 mg/kg bodyweight. BALB/c mice were injected i.p. with high doses LPS (E. coli 026:B6; Difco Lab., Detroit, Mich. USA), predetermined to be leading to 80 to 100% mortality in 24 to 72 hours.

[3] = test system: cell-cycle marker pCDG and auxin-responsive marker DR5::GUS; experiment: Arabidopsis thaliana seedling cell-cycle analysis (GUS markers); conditions: Results from Examples 9 and 10
Experimental: To further study anti-cell-cycle activity of various oligopeptides, a proliferation experiment in Arabidopsis Thaliana seedlings was performed. The aim was to test a group of 140 oligopeptides of varying length for their effect on plant marker gene expression during rapid growth when avid cell division occurs.
The peptides were re-suspended in 1× Phosphate Buffer Saline (PBS) pH 8 to a final concentration of 5 mg/ml. The obtained solutions were then divided through 96-well round bottom plates (Corning Incorporated) at 40 microliters per well. Plates were stored before use at […] for four days. Seeds of Arabidopsis thaliana ecotype Ws-0 were surface sterilized in 2% commercial bleach (Gloria) for ten minutes and washed five times with sterile MQ water. The seeds were then re-suspended with 0.1% agar and plated on MS20 plates supplemented with 80 mg/l Kanamycin.
The plates were placed at […] for two nights and then transferred to a climate room at […] and a 16/8 hours photoperiod. After four days of growth, the seedlings were transferred to 96-well plates containing the peptide solutions (four seedlings per well) and incubated for four and eight hours.
For this experiment, Arabidopsis homozygous seedlings harboring two reporter genes fused to GUS were used. […] After incubation with the compounds, the seedlings were stained for GUS. The staining reaction was performed in 100 mM sodium phosphate buffer (pH 7.0) that contained 10 mM EDTA, 10% DMSO, 0.1% Triton X-100, 2 mM X-Gluc, 0.5 mM K3Fe(CN)6 and 0.5 mM K4Fe(CN)6 at […] for 16 hours. […] Seedlings were fixed and cleared in chloral hydrate solution for detailed microscopic observation and photography under a microscope equipped with DIC optics.
Peptides were tested for an effect on marker gene expression on rapidly growing Arabidopsis young seedlings. This was monitored by changes on GUS distribution in different organs: root, root-hypocotyl transition zone and cotyledons.

What does the source list for AQG?
Mortality in dose-response experiment ([1]; 0.3 mg/kg, 24 hours): 0-10; Urea levels in dose-response experiment ([1]; 0.3 mg/kg, 24 hours): 38.4; Mortality in dose-response experiment ([1]; 0.3 mg/kg, 72 hours): 2-8; Urea levels in dose-response experiment ([1]; 0.3 mg/kg, 72 hours): 30.4; Mortality in dose-response experiment ([1]; 1.0 mg/kg, 24 hours): 0-10; Urea levels in dose-response experiment ([1]; 1.0 mg/kg, 24 hours): 48.4; Mortality in dose-response experiment ([1]; 1.0 mg/kg, 72 hours): 1-8; Urea levels in dose-response experiment ([1]; 1.0 mg/kg, 72 hours): 38.4; Mortality in dose-response experiment ([1]; 3.0 mg/kg, 24 hours): 0-10; Urea levels in dose-response experiment ([1]; 3.0 mg/kg, 24 hours): 39.3; Mortality in dose-response experiment ([1]; 3.0 mg/kg, 72 hours): 0-10; Urea levels in dose-response experiment ([1]; 3.0 mg/kg, 72 hours): 40.3; BUN concentration versus the PBS control group (in words) [1]: no reducing effect on BUN concentration; mortality versus the PBS control group (in words) [1]: significant reduction of mortality; mortality at 72 hours post-reperfusion [1]: 4/10; Mortality in dose-response experiment ([1]; 10.0 mg/kg, 24 hours): 0-8; Urea levels in dose-response experiment ([1]; 10.0 mg/kg, 24 hours): 46.8; Mortality in dose-response experiment ([1]; 10.0 mg/kg, 72 hours): 1-10; Urea levels in dose-response experiment ([1]; 10.0 mg/kg, 72 hours): 25.8; Mortality in dose-response experiment ([1]; 30.0 mg/kg, 24 hours): 0-8; Urea levels in dose-response experiment ([1]; 30.0 mg/kg, 24 hours): 52.8; Mortality in dose-response experiment ([1]; 30.0 mg/kg, 72 hours): 1-8; Urea levels in dose-response experiment ([1]; 30.0 mg/kg, 72 hours): 58.9; BUN after 25 minutes renal ischemia, mean ([1]; 2 hours after reperfusion): 17.7; BUN after 25 minutes renal ischemia, mean ([1]; 24 hours after reperfusion): 66.76; BUN after 25 minutes renal ischemia, mean ([1]; 72 hours after reperfusion): 91.18; BUN levels in dose-response experiment (in words) ([1]; lower dosages tested (0.3-30 mg/kg range), compared with peptide B): did reduce BUN levels surprisingly well at the lower dosages tested; BUN after 25 minutes renal ischemia, mean ([1]; t = 0 hr (before clamping)): 9.304; mice with sickness score 1, effect at t = 24 hours ([2]; LPS dose 10.5): 2; mice with sickness score 1, effect at t = 48 hours ([2]; LPS dose 10.5): 2; mice with sickness score 2, effect at t = 24 hours ([2]; LPS dose 10.5): 1; mice with sickness score 2, effect at t = 48 hours ([2]; LPS dose 10.5): 3; mice with sickness score 3, effect at t = 24 hours ([2]; LPS dose 10.5): 2; mice with sickness score 1, effect at t = 24 hours ([2]; LPS dose 11): 4; mice with sickness score 2, effect at t = 48 hours ([2]; LPS dose 11): 6; mice with sickness score 3, effect at t = 24 hours ([2]; LPS dose 11): 2; identified as useful peptide for treatment of radiation injury from cell-cycle studies in plants and in vitro proliferation studies [3]: useful

For LAG, which “BUN concentration versus the PBS control group (in words)” value [1] is on record?
Its value is “no reducing effect on BUN concentration”.

What about the “mortality versus the PBS control group (in words)” value [1] of the same substance?
The value was “significant reduction of mortality”.

And the “mortality at 72 hours post-reperfusion” value [1]?
Its value is 4/10.

And the “BUN after 25 minutes renal ischemia, mean” value (shortened to “BUN … mean”) ([1]; 2 hours after reperfusion)?
Its value is 18.13.

And the “BUN … mean” value ([1]; 24 hours after reperfusion)?
Its value is 59.24.

What about the “BUN … mean” value ([1]; 72 hours after reperfusion) of the same substance?
Its value is 74.4.

And the “BUN … mean” value ([1]; t = 0 hr (before clamping))?
The value was 10.15.

And the “mice scored D (dead), effect at t = 48 hours” value ([2]; LPS dose 10.5)?
The value was 6.

And the “mice with sickness score 5, effect at t = 24 hours” value ([2]; LPS dose 10.5)?
The value was 5.

And the “mice scored D (dead), effect at t = 48 hours” value ([2]; LPS dose 11)?
The value was 6.

What about the “mice with sickness score 5, effect at t = 24 hours” value ([2]; LPS dose 11) of the same substance?
Its value is 6.

What about the “identified as useful peptide for treatment of radiation injury from cell-cycle studies in plants and in vitro proliferation studies” value [3] of the same substance?
The value was “useful”.
